This is an account of results in patent US20230373972A1, “PIPERAZINE DERIVATIVE, PREPARATION METHOD THEREFOR AND USE THEREOF” (Zhejiang Hisun Pharmaceutical Co., Ltd., priority 2020, published 2023).

One assay has as its system human plasma. Briefly: In-vitro anticoagulation on human plasma (APTT kit, coagulation time). The following applies: concentration of the compound when the coagulation time (APTT) was prolonged twice. The procedure:
The following method was used to determine the in-vitro anticoagulation of the compound of the present invention in the human plasma. In the method, an APTT kit of the MediRox company was used to test. The APTT kit was purchased from MediRox (article number MRX930), and the human plasma was prepared internally.
The preparation of the human plasma was briefly described as follows: human plasma was collected in a blood collection tube containing sodium citrate, and centrifuged at 3,000 rpm for 10 minutes at room temperature, and plasma was collected, and packaged separately and stored at −80° C.
An APTT test process was briefly described as follows: a test compound was dissolved in DMSO to prepare a 10 mM storage solution first, then the test compound was diluted with DMSO by a triple gradient, and a final concentration of the test compound in a reaction system ranged from 217 μM to 0.03 μM. 4 μL, of test compounds at different concentrations diluted with DMSO were added to a centrifuge tube containing 180 μL of plasma, and 4 μL of DMSO was added to a blank group, shaken and mixed evenly, and incubated at 37° C. for 5 minutes. Subsequently, an APTT reagent was placed in a reagent holder according to instrument requirements, the incubated plasma sample was placed in a detection position of a coagulation analyzer, and a coagulation time was determined and recorded (s). With a final concentration of the compound as an abscissa and Ratio (Ratio=TiT0, wherein T0 was a coagulation time of a blank control, and Ti was a coagulation time of a compound to be tested) as an ordinate, a coagulation dose-effect curve was drawn by Graph Pad Prisms, and a concentration of the compound when the coagulation time was prolonged twice was calculated, which was namely a CT2 value, as shown in Table 2.

Assay [1] deals with T1, Native human Factor XIa protease (Homo sapiens, UniProt P03951).
T1 construct: The Native human Factor XIa protease was purchased from Abcam; purchased Abcam ab62411
Briefly: Inhibition of activity of Factor XIa protease (chromogenic substrate S-2366). In kind it is biochemical. Conditions: S-2366 1 mM, 37° C. 10 minutes, absorption at 405 nm. An excerpt:
The following method was used to determine an inhibition degree of the compound of the present invention on an activity of Native human Factor XIa protease in vitro. In the method, a Factor XIa chromogenic substrate was used to test the inhibition degree on the activity of the Factor XIa protease. The Native human Factor XIa protease was purchased from Abcam (article number ab62411), and S-2366 was purchased from Chromogenix (article number 82109039). An experimental process was briefly described as follows: a test compound was dissolved in DMSO to prepare a 10 mM storage solution first, then the compound was diluted with a Factor XIa reaction buffer (100 mM Tris-HCl, 200 mM NaCl, 0.02% Tween 20, pH 7.4) by a quadruple gradient, and a final concentration of the test compound in a reaction system ranged from 10,000 nM to […]. The reaction was carried out in a 384-well microplate. 2 μL of the test compounds at different concentrations diluted with the reaction buffer were added to wells first, and 2 μL of 1% DMSO (a final concentration of DMSO in the reaction system was 0.1%) was used to replace blank and control wells. Subsequently, 8 μL of enzyme working solution (a final concentration of Factor XIa was […]) was added to each well, and 8 μL of Factor XIa reaction buffer was used to replace the blank well, centrifuged for 30 seconds, and incubated on ice for 5 minutes. Finally, 10 μL of substrate working solution (a final concentration of S-2366 was 1 mM) was added to each well, and centrifuged for 30 seconds, and the reaction was started. The solution was incubated at 37° C. for 10 minutes to determine a light absorption value at 405 nm. By comparing with a light absorption value of the control group (0.1% DMSO), a percentage inhibition rate of the compound at each concentration was calculated, and nonlinear regression analysis was carried out on value-inhibition rate with the concentration of the compound by GraphPad Prism 5 software, so as to obtain an IC50 value of the compound, as shown in Table 1.

T1 sequence (P03951 388-625 limits assumed): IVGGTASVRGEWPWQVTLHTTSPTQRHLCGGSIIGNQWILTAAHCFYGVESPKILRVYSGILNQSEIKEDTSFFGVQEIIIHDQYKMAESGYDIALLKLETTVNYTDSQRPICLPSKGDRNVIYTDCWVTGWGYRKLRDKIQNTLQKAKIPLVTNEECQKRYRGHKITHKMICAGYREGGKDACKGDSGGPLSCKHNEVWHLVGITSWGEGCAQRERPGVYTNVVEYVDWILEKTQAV
T1 sequence (P03951 19-387 partner limits assumed): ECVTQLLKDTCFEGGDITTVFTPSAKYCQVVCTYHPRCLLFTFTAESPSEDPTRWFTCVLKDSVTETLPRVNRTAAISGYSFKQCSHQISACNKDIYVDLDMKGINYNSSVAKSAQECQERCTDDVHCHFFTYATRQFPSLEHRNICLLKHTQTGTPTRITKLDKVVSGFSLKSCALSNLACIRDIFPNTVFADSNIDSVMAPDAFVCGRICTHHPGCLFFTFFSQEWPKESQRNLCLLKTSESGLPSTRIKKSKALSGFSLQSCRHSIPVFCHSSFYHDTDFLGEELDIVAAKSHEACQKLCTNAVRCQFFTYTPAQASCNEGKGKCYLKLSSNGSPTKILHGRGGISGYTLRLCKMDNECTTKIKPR

One may read the IC50 as the midpoint of a concentration-inhibition curve. Turning to `O=C(Nc1cccc(F)c1)C(Cc1ccccc1)N1CC(=O)N(c2cc(Cl)ccc2-n2cnnn2)CC1=O` (stereo not drawn) [Example 15, 2-(4-(5-Chloro-2-(1H-tetrazol-1-yl)phenyl)-2,5-dioxopiperazine-1-yl)-N-(3-fluorophenyl)-3-phenylpropanamide], the “CT2” value in the assay on human plasma turned out to be 9.9 µM. For the same compound, the IC50 in assay [1] came out at 25.1 nM.

`O=C(O)c1cccc(NC(=O)C(Cc2ccccc2)N2CC(=O)N(c3cc(Cl)ccc3-n3cnnn3)CC2=O)c1` (stereo not drawn) [Example 9, 3-(2-(4-(5-Chloro-2-(1H-tetrazol-1-yl)phenyl)-2,5-dioxopiperazin-1-yl)-3-phenylpropanamido)benzoic Acid]: in the assay on human plasma, the “CT2” value was 2.9 µM. In addition, the IC50 in assay [1] is 7.8 nM.

With `O=C(O)c1ccc(NC(=O)C(Cc2ccccc2)N2CC(=O)N(c3cc(Cl)ccc3-n3cnnn3)CC2=O)cc1` (stereo not drawn) [Example 52, 4-(2-(4-(5-chloro-2-(1H-tetrazol-1-yl)phenyl)-2,5-dioxopiperazin-1-yl)-3-phenylpropanamido)benzoic Acid], in the assay with human plasma, the “CT2” value amounted to 2.0 µM. The IC50 in assay [1] was 17.6 nM.

Consider `O=C(Nc1ccc2c(cnn2C(F)F)c1)C(Cc1ccccc1)N1CC(=O)N(c2cc(Cl)ccc2-n2cnnn2)CC1=O` (stereo not drawn) [Example 33, 2-(4-(5-chloro-2-(1H-tetrazol-1-yl)phenyl)-2,5-dioxopiperazin-1-yl)-N-(1-(difluoromethyl)-1H-indazol-5-yl)-3-phenylpropanamide], for which the “CT2” value in the assay on human plasma came to 18.5 µM. This compound also gave an IC50 in assay [1] of 26.1 nM.

With `O=C(O)c1ccc(NC(=O)C(Cc2ccccc2)N2CC(=O)N(c3cc(Cl)ccc3-n3cc(Cl)nn3)CC2=O)cc1` (stereo not drawn) [Example 26, 4-(2-(4-(5-Chloro-2-(4-chloro-1H-1,2,3-triazol-1-yl)phenyl)-2,5-dioxopiperazin-1-yl)-3-phenylpropanamido)benzoic Acid], the “CT2” value with human plasma came out at 7.0 µM. The compound also came in with an IC50 in assay [1] of 16.9 nM.

In the case of `CNC(=O)c1ccc(NC(=O)C(Cc2ccccc2)N2CC(=O)N(c3cc(Cl)ccc3-n3cnnn3)CC2=O)cc1` (stereo not drawn) [Example 6, 4-(2-(4-(5-Chloro-2-(1H-tetrazol-1-yl)phenyl)-2,5-dioxopiperazin-1-yl)-3-phenylpropanamido)-N-methylbenzamide], the “CT2” value with human plasma was 4.9 µM. Besides, the IC50 in assay [1] was found to be 34.6 nM.

For the compound `O=C(Nc1ccc2nn(C(F)F)cc2c1)[C@H](Cc1ccccc1)N1CC(=O)N(c2cc(Cl)ccc2-n2cc(Cl)nn2)CC1=O` [Example 97, (S)-2-(4-(5-chloro-2-(4-chloro-1H-1,2,3-triazol-1-yl)phenyl)-2,5-dioxopiperazin-1-yl)-N-(2-(difluoromethyl)-2H-indazol-5-yl)-3-phenylpropanamide], in the assay on human plasma, the “CT2” value is 12.5 µM. The compound also gave an IC50 in assay [1] of 21.2 nM.

For `COC(=O)Nc1ccc(NC(=O)C(Cc2ccccc2)N2CC(=O)N(c3cc(Cl)ccc3-n3cnnn3)CC2=O)cc1` (stereo not drawn) [Example 2, Methyl (4-(2-(4-(5-chloro-2-(1H-tetrazol-1-yl)phenyl)-2,5-dioxopiperazin-1-yl)-3-phenylpropanamido)phenyl)carbamate], the “CT2” value with human plasma was 12.6 µM. In addition, in assay [1], the IC50 was 44.9 nM.

Regarding `O=C(O)c1ccc(NC(=O)C(Cc2ccccc2)N2CC(=O)N(c3cc(Cl)ccc3-n3ccnn3)CC2=O)cc1` (stereo not drawn) [Example 11, 4-(2-(4-(5-Chloro-2-(1H-1,2,3-triazole-1-yl)phenyl)-2,5-dioxopiperazin-1-yl)-3-phenylpropanamido)benzoic Acid], in the assay on human plasma, the “CT2” value turned out to be 8.1 µM. The IC50 in assay [1] is 24.9 nM.

Take `Cn1cc2cc(NC(=O)C(Cc3ccccc3)N3CC(=O)N(c4cc(Cl)ccc4-n4cnnn4)CC3=O)ccc2n1` (stereo not drawn) [Example 19, 2-(4-(5-Chloro-2-(1H-tetrazol-1-yl)phenyl)-2,5-dioxopiperazin-1-yl)-N-(2-methyl-2H-indazol-5-yl)-3-phenylpropanamide]: the “CT2” value in the assay on human plasma was 3.0 µM. In assay [1], this compound yielded an IC50 of 8.5 nM.

As to `COC(=O)c1ccc(NC(=O)C(Cc2ccccc2)N2CC(=O)N(c3cc(Cl)ccc3-n3cnnn3)CC2=O)cc1` (stereo not drawn) [Example 5, Methyl 4-(2-(4-(5-Chloro-2-(1H-tetrazol-1-yl)phenyl)-2,5-dioxopiperazin-1-yl)-3-phenylpropanamido)benzoate], the “CT2” value with human plasma came out at 17.8 µM. In addition, half-maximal inhibition in assay [1] (IC50) was put at 29.9 nM.

Regarding `Cn1cc2ccc(NC(=O)C(Cc3ccccc3)N3CC(=O)N(c4cc(Cl)ccc4-n4cnnn4)CC3=O)cc2n1` (stereo not drawn) [Example 31, 2-(4-(5-Chloro-2-(1H-tetrazol-1-yl)phenyl)-2,5-dioxopiperazin-1-yl)-N-(2-methyl-2H-indazol-6-yl)-3-phenylpropanamide], the “CT2” value in the assay with human plasma is 13.7 µM. Further, the IC50 in assay [1] was 38.9 nM.

As to `O=C(Nc1ccn2nccc2c1)C(Cc1ccccc1)N1CC(=O)N(c2cc(Cl)ccc2-n2cnnn2)CC1=O` (stereo not drawn) [Example 37, 2-(4-(5-chloro-2-(1H-tetrazol-1-yl)phenyl)-2,5-dioxopiperazin-1-yl)-3-phenyl-N-(pyrazolo[1.5-a]pyridin-5-yl)propanamide], the “CT2” value in the assay with human plasma was determined as 7.5 µM. Also, in assay [1], 17.6 nM corresponded to half-maximal inhibition (IC50).

For the compound `Cn1cc2cc(NC(=O)C(Cc3ccccc3)N3CC(=O)N(c4cc(Cl)ccc4-n4cc(C(F)(F)F)nn4)CC3=O)ccc2n1` (stereo not drawn) [Example 121, 2-(4-(5-Chloro-2-(4-(trifluoromethyl)-1H-1,2,3-triazol-1-yl)phenyl)-2,5-dioxopiperazin-1-yl)-N-(2-methyl-2H-indazol-5-yl)-3-phenylpropanamide], the “CT2” value with human plasma turned out to be 16.1 µM. The IC50 in assay [1] is 32.7 nM.

With `O=C1NCc2cc(NC(=O)C(Cc3ccccc3)N3CC(=O)N(c4cc(Cl)ccc4-n4cnnn4)CC3=O)ccc21` (stereo not drawn) [Example 7, 2-(4-(5-Chloro-2-(1H-tetrazol-1-yl)phenyl)-2,5-dioxopiperazine-1-yl)-N-(1-oxoisoindolin-5-yl)-3-phenylpropanamide], in the assay on human plasma, the “CT2” value is 9.8 µM. The compound also showed a half-inhibitory concentration (IC50) in assay [1] of 15.5 nM.

In assay [1], `COc1nccc2cc(NC(=O)C(Cc3ccccc3)N3CC(=O)N(c4cc(Cl)ccc4-n4cnnn4)CC3=O)ccc12` (stereo not drawn) [Example 23, 2-(4-(5-Chloro-2-(1H-tetrazol-1-yl)phenyl)-2,5-dioxopiperazin-1-yl)-N-(1-methoxyisoquinolin-6-yl)-3-phenylpropanamide] displayed an IC50 of 43.2 nM.

As to `NC(=O)c1ccc(NC(=O)C(Cc2ccccc2)N2CC(=O)N(c3cc(Cl)ccc3-n3cnnn3)CC2=O)cc1` (stereo not drawn) [Example 3, 4-(2-(4-(5-Chloro-2-(1H-tetrazol-1-yl)phenyl)-2,5-dioxopiperazin-1-yl)-3-phenylpropanamido)benzamide], in the assay with human plasma, the “CT2” value is 6.6 µM. In assay [1], this compound yielded an IC50 of 36.7 nM.

For the compound `O=C(Nc1ccc(N2CCCC2=O)cc1)C(Cc1ccccc1)N1CC(=O)N(c2cc(Cl)ccc2-n2cnnn2)CC1=O` (stereo not drawn) [Example 10, 2-(4-(5-Chloro-2-(1H-tetrazol-1-yl)phenyl)-2,5-dioxopiperazin-1-yl)-N-(4-(2-oxopyrrolidin-1-yl)phenyl)-3-phenylpropanamide], the half-inhibitory concentration (IC50) in assay [1] stood at 43.9 nM.

The compound `NC(=O)c1ccc(NC(=O)[C@H](Cc2ccccc2)N2CC(=O)N(c3cc(Cl)ccc3-n3cc(Cl)nn3)CC2=O)cc1F` [Example 137, (S)-4-(2-(4-(5-chloro-2-(4-chloro-1H-1,2,3-triazol-1-yl)phenyl)-2,5-dioxopiperazin-1-yl)-3-phenylpropanamido)-2-fluorobenzamide] had an IC50 in assay [1] of 27.3 nM.

`CCOC(=O)c1ccc(NC(=O)C(Cc2ccccc2)N2CC(=O)N(c3cc(Cl)ccc3-n3cnnn3)CC2=O)cc1` (stereo not drawn) [Example 4, Ethyl 4-(2-(4-(5-chloro-2-(1H-tetrazol-1-yl)phenyl)-2,5-dioxopiperazin-1-yl)-3-phenylpropanamido) benzoate] displayed an IC50 in assay [1] of 49.8 nM.
